Measured values published in article PMC11979685, “Synthesis of Derivatives of the Antibiotic Albicidin: The N‐Terminal Fragment as Key to Control Potency and Resistance Mediated by the Binding Protein AlbA” (Chemistry (Weinheim an Der Bergstrasse, Germany), 2025).
Values after ≈ are worked out from the molar mass of the structure shown.

Experiments:
E. coli DSM 1116 = test: Qualitative growth inhibition assay in presence of AlbAS; type: cell-based, Escherichia coli
Procedure: Finally, we investigated if synthetic variations of building block A are able to evade the effects of the resistance protein AlbA. Therefore, we carried out a qualitative growth inhibition assay with derivatives 4–24 in presence of an equimolar amount of purified AlbAS. After incubation of the cultures overnight, the growth of the bacteria was evaluated. The ability of AlbAS to sufficiently sequester an albicidin derivative from the supernatant allowed E. coli cells to accumulate in a visible cell pellet. Second, we performed a quantitative transcription‐activation reporter assay[22] to assess transcriptional regulation by AlbAL. The promoter sequence pAlbA was inserted into a reporter vector that encodes the ilux luminescence cassette.[22] The luminescence signals elicited by ligand binding of synthetic variations to AlbAL was compared and normalized to the signal induced by 2nd Gen albicidin 2 and are hereby referred to as relative transcription activation (TA^%). The combination of both assays prompted us to categorize the experimental outcomes (Figure 4) in four groups:
Figure 4 Characterization of AlbA resistance against derivatives 2, 4–24. GIA: Qualitative growth inhibition assay against E. coli DSM 1116. (−): Derivative unable to inhibit the growth of E. coli in presence of AlbAS. (+): Derivative inhibits growth of E. coli in presence of AlbAS. […] For details see SI Figure 9. Transcription activation (TA) assay: luminescence elicited by 2nd Gen albicidin 2 from the TA assay was normalized to 100 % and the luminescence signal of tested derivatives provided: relative luminescence [%]=luminescence [derivative]/luminescence [2]×100 %. Green bars indicate low relative luminescence (<40 %) and red bars indicate high relative luminescence (>50 %). Error bars show the standard deviations of triplicate measurements. TEXT PRINTED IN THE PICTURE: 2: E. coli inhibition +AlbA: − | 4: E. coli inhibition +AlbA: + | 9: E. coli inhibition +AlbA: + | 11: E. coli inhibition +AlbA: + | 12: E. coli inhibition +AlbA: + | 13: E. coli inhibition +AlbA: ~ | 14: E. coli inhibition +AlbA: − | 16: E. coli inhibition +AlbA: − | 17: E. coli inhibition +AlbA: − | 18: E. coli inhibition +AlbA: − | 19: E. coli inhibition +AlbA: − | 20: E. coli inhibition +AlbA: + | 21: E. coli inhibition +AlbA: − | 22: E. coli inhibition +AlbA: − | 23: E. coli inhibition +AlbA: − | 24: E. coli inhibition +AlbA: − […]
1.3 Resistance assessment against AlbA
E. coli strain DSM 1116 was used for all susceptibility testing. E. coli BL21 Star (DE3) cells (Invitrogen) were used for protein expression. LB medium (Lysogeny broth: 10 g/L peptone, 5 g/L yeast extract, 5 g/L NaCl) was used as broth or in agar plates for all experiments. Incubation steps took place at 37°C and 180 rpm shaking if not stated otherwise. Throughout the study, 2nd Gen albicidin 2 was used as albicidin standard due to its better stability, availability and similar activity compared to natural albicidin in presence of resistance factors.[3,4]
AlbA expression and purification
N-terminally His-tagged AlbA was expressed using a pET28a vector as described previously.[5] In brief, E. coli BL21(DE3) cells were transformed with pET28-AlbA plasmid and grown in LB medium with kanamycin. LB broth supplemented with 50 µg/mL kanamycin was inoculated from over-night cultures and grown at 37°C until an OD600 of 0.6 was reached. After induction with 0.2 mM isopropyl β-D-1-thiogalactopyranoside (IPTG) the proteins were expressed at 18°C for 20 h. The cells were harvested by centrifugation (4,000 x G, 20 min), resuspended in lysis buffer (50 mM Tris, pH 8.0, 500 mM NaCl, 10% glycerol) and processed in a cell disruptor (Constant Systems Ltd) at 25 kPsi before centrifugation at 50,000 x G, at 4°C for 45 min. The lysate was incubated with Pure Cube Ni-NTA agarose (Cube Biotech, Germany) at 4°C for 20 min while shaking. The slurry was transferred to empty gravity-flow […]

E. coli DNA gyrase = E. coli DNA gyrase (Escherichia coli, UniProt P0AES4); test: E. coli gyrase DNA cleavage assay; type: biochemical; parameters: key to Gyrase inhibition strong+ / weak −: + strong inhibition; − weak inhibition in comparison to compound 16; details: for Gyrase inhibition strong+ / weak −: qualitative DNA cleavage assay at 1 μM and 10 μM, in comparison to compound 16
Sequence of E. coli DNA gyrase (P0AES4 whole entry): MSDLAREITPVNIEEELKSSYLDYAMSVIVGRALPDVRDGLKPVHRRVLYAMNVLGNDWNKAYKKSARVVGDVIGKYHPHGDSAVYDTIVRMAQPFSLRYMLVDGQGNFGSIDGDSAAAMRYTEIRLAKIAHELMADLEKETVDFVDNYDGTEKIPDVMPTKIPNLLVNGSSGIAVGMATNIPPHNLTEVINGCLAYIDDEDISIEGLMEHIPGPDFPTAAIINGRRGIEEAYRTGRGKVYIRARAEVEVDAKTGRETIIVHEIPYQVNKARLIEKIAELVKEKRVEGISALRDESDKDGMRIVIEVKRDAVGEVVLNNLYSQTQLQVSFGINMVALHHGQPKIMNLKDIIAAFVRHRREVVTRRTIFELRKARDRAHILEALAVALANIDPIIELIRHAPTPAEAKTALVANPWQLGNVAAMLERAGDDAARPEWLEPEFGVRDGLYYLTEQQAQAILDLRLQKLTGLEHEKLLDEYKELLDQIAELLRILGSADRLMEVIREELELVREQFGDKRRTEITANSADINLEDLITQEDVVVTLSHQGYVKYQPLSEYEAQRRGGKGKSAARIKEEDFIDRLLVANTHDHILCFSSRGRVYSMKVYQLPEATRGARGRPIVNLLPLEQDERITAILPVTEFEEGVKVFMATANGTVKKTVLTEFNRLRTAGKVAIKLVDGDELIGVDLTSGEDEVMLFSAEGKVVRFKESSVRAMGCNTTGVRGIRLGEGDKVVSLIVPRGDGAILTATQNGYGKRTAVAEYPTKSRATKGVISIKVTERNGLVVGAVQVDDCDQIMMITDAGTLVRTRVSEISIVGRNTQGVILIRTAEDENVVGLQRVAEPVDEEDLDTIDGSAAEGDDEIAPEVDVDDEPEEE
Procedure: The target activity of the synthesized derivatives was investigated using a DNA cleavage assay with purified and enzymatically active E. coli DNA gyrase[8] (see SI). In this assay, albicidin‐stabilized complexes of gyrase and plasmid DNA are trapped, and subsequently denatured and deproteinated to reveal DNA linearized by gyrase. […] For the best performing compounds, which were able to fully stabilize the cleavage complex at a concentration of 1 μM, the concentrations at half‐maximum cleavage (CC50) were determined (Figure 3).
1.2 Escherichia coli Gyrase Cleavage Inhibition Assay
E. coli gyrase cleavage assays were executed by setting up a master mix including 0.25 µg relaxed plasmid (pBR322) in 35 mM Tris-HCl (pH 7.5), 24 mM KCl, 4 mM MgCl2, 2 mM dithithreitol (DTT), 1.8 mM spermidine, 1 mM ATP, 6.5% (wt/vol) glycerol and 0.1 mg/ml bovine serum albumin per reaction.
Of this stock solution, 13.2 µL was aliquoted for each reaction into 1.5 mL Eppendorf tubes and supplemented with 0.3 µL of the appropriate compound dilution or DMSO with a […] DMSO concentration of 2% per reaction. The reactions were started with 1.5 µL of 50 nM (pre-screening) or 40 nM (IC50 determinations) wt E. coli gyrase in dilution buffer (50 mM Tris-HCl (pH 7.5), 100 mM KCl, 2 mM DTT, 1 mM EDTA, and 50% (wt/vol) glycerol) for a […] volume of 15 µL. Reactions were incubated at 37°C for 30 minutes before addition of 1.5 µL 0.2% (wt/vol) SDS and 0.75 µL proteinase K (0.2 mg/mL) and further incubation at 37°C for 30 minutes to trap cleavage complexes. Reactions were stopped with 15 µL chloroform:isoamyl alcohol (24: 1 v/v) and 15 µL of STEB (40% (wt/vol) sucrose, […] Tris-Cl pH 8, 10 mM EDTA, 0.5 mg/mL bromophenol blue). After brief vortexing and centrifugation at 2,300g for 5 min, 15 µL of the aqueous phase was loaded onto 1% (wt/vol) agarose in TAE (Tris-acetate […] and EDTA […]) gels supplemented with 10 µg/mL ethidium bromide.
The gels were run at 85 V for 2 hours.
DNA was visualized (602/50, UV Trans, auto optimal exposure) with a ChemiDoc MP (Bio-Rad Laboratories Inc., equipped with ImageLab Touch Software v2.0.0.27) and the percentage of cleaved DNA relative to the total amount of DNA per lane was determined with ImageJ software.[2] IC50 curves were generated in GraphPad Prism (v10.0.0) using the non-linear regression curve fit variable slope with four parameters and least squares regression.

E. coli = test: MIC against E. coli in presence of 50 % human serum; type: cell-based; details: Escherichia coli; E. coli in presence of 50 % human serum; read-out: MICEc 50%HS
[1] = Reverse-phase HPLC retention time as estimate of lipophilicity; type: physicochemical; details: indicator of lipophilicity
Description: As mentioned before, albicidin 1 is a rather hydrophobic compound and improving its aqueous solubility is desirable. The lipophilicity of drug molecules is commonly characterized by the octanol/water partition coefficient (logP). An alternative approach relies on the correlation between lipophilicity and the retention time (Rt) on a reverse‐phase HPLC column.[31] This approach works well if structurally related compounds are compared as is the case for this SAR study. Rt was thus used to estimate the hydrophilicity of albicidin 1 and its derivatives 2–24 (Table 1).[32]

E. coli DSM1116 = test: MIC determination (broth microdilution); type: cell-based; details: Escherichia coli, DSM1116; read-out: MIC E. coli DSM1116
Procedure: (§1) After completing the syntheses, the antibacterial activity of A‐variations 4–24 was assessed by determination of MIC values against a basic set of gram‐negative and gram‐positive bacteria (Table 1). The monocyclic derivatives 4–8 featuring a cyano‐, trifluoromethyl‐, methoxy‐ and fluoro‐ substituent in para‐position were very active against the gram–negative E. coli and S. typhimurium strains with MIC values in the same range as 3rd Gen albicidin 3 or ciprofloxacin which is the gold standard for gyrase inhibitors. […] These findings are in agreement with previous studies showing good activities for cyano, trifluoromethyl, methoxy and fluoro substituents in the para‐position of different aromatic rings in the building block A.[12, 13] The activity of the monocyclic derivatives 4–8 against the gram‐positive strains B. subtilis and M. luteus were similar but slightly less pronounced compared to the lead structure 3.
(§2) 1.1 Determination of Minimal Inhibitory Concentrations (MIC)
(§3) Minimal inhibitory concentration (MIC) against selected bacterial strains values were determined according to the ninth edition of the Approved Standard M07-A9.[1] 20 μL of cryo stocks of bacterial strains were suspended in 20 mL LB medium (Lysogeny broth: 10 g/L peptone, 5 g/L yeast extract, 5 g/L NaCl). Following incubation overnight at 37°C, 200 rpm, the test inoculum was adjusted by 0.5 McFarland Standard in cation adjusted Mueller-Hinton broth (BBLTM Mueller-Hinton Broth II, Becton, Dickinson and Company, New Jersey, USA) to approximately 1x10^6 CFU mL-1. 95 μL of the bacterial inoculum were applied per well of a 96-well plate. Albicidin and albicidin derivatives 3−24 were dissolved in DMSO (100%) to an initial concentration of 2560 μg/mL and serially diluted in DMSO (100%). Initial solution and serial dilutions of Ciprofloxacin were prepared in 0.1 N HCL, respectively. 5 μL of each antibiotic dilution were added to the microdilution tray to reach albicidin concentrations of 128 μg/mL to 0.016 μg/mL per well. One row of each well plate served as a growth control without antibiotic substances and another row of the microdilution tray served as sterility control (only MHB II - media). The antimicrobial effect of the solvent (DMSO) was tested by adding 5 μL DMSO to several wells. Purity check and cell titer control were performed according to International S tandard M07-A9 on Mueller-Hinton II Agar (Mueller Hinton II Broth, 15 g/L agar-agar). Both microdilution trays and agar plates were incubated at 30−37°C for 16 h and subsequently analyzed for growth inhibition by naked eye. The following primary panel of microorganisms were purchased from German Collection of Microorganisms and Cell Cultures (DSMZ):
(§4) Escherichia coli DSM 1116
(§5) Micrococcus luteus DSM 1790
(§6) Mycobacterium phlei DSM 750
(§7) Salmonella typhimurium TA100 was kindly provided by Prof. Dr. Vera Meyer (Technische Universität Berlin). […]
(§8) was purchased as part of the single gene knockout library of E. coli K12 BW25113 (Keio collection) from Horizon Discovery group plc (Cambridge, UK).

[2] = system: Mycobacterium phlei DSM 750; test: MIC determination (broth microdilution); type: cell-based; details: Mycolicibacterium phlei, DSM750; read-out: MIC M. phlei
Procedure: as §1, §2, §3, §4, §5, §6, §7, §8

[3] = system: Salmonella typhimurium TA100; test: MIC determination (broth microdilution); type: cell-based; details: Salmonella enterica, read-out: MIC S. typh.
Procedure: as §1, §2, §3, §4, §5, §6, §7, §8

E. coli BW25113 = test: MIC determination (broth microdilution); type: cell-based; details: Escherichia coli, BW25113; read-out: MIC E. coli BW25113
Procedure: as §1, §2, §3, §4, §5, §6, §7, §8

[4] = system: Micrococcus luteus DSM 1790; test: MIC determination (broth microdilution); type: cell-based; details: DSM1790, read-out: MIC M. luteus
Procedure: as §1, §2, §3, §4, §5, §6, §7, §8

Bacillus subtilis DSM 10 = test: MIC determination (broth microdilution); type: cell-based; details: DSM10, read-out: MIC B. sub.
Procedure: as §1, §2, §3, §4, §5, §6, §7, §8

Compound | GIA: E. coli inhibition +AlbA (E. coli DSM 1116; E. coli DSM 1116, 10 µM compound with equimolar AlbAS) | bioactivity in presence of AlbAS (in words) (E. coli DSM 1116; E. coli, equimolar purified AlbAS) | CC50 (E. coli DNA gyrase; E. coli gyrase DNA cleavage, read-out: CC50 (concentration at half-maximum cleavage)) [nM] | Gyrase inhibition strong+ / weak − (E. coli DNA gyrase) | MIC (E. coli) [µg/mL] | Rt (retention time) [1] [min] | MIC (E. coli DSM1116) [µg/mL] | MIC [2] [µg/mL] | MIC [3] [µg/mL] | MIC (E. coli BW25113) [µg/mL] | MIC [4] [µg/mL] | MIC (Bacillus subtilis DSM 10) [µg/mL]
COc1c(NC(=O)c2ccc(NC(=O)c3ccc(NC(=O)[C@H](Cc4cn[nH]n4)NC(=O)c4ccc(NC(=O)/C(C)=C/c5ccc(O)cc5)cc4)cc3)c(OC)c2O)ccc(C(=O)O)c1O [compound 2, reference compound] | − | deactivated |  |  |  |  |  |  |  |  |  | 
COc1c(NC(=O)c2ccc(NC(=O)c3ccc(NC(=O)[C@H](Cc4cn[nH]n4)NC(=O)c4ccc(NC(=O)/C(C)=C/c5ccc(O)cc5)cc4)cn3)c(OC)c2O)ccc(C(=O)O)c1O [compound 3, reference compound] |  |  | 66 | + | 0.5 | 8.15 | 0.016 (≈ 0.0181 µM) | 0.25 (≈ 0.282 µM) | 0.016 (≈ 0.0181 µM) | 0.016 (≈ 0.0181 µM) | 0.031 (≈ 0.035 µM) | 0.031 (≈ 0.035 µM)
COc1c(NC(=O)c2ccc(NC(=O)c3ccc(NC(=O)[C@H](Cc4c[nH]nn4)NC(=O)c4ccc(NC(=O)c5ccc(C(F)(F)F)cc5)cc4)cn3)c(OC)c2O)ccc(C(=O)O)c1O [compound 5] |  |  |  | − | 4 | 8.99 | 0.016 (≈ 0.0178 µM) | 1 (≈ 1.11 µM) | ≤ 0.016 | 0.063 (≈ 0.0702 µM) | 0.5 (≈ 0.557 µM) | 0.125 (≈ 0.139 µM)
COc1c(NC(=O)c2ccc(NC(=O)c3ccc(NC(=O)[C@H](Cc4c[nH]nn4)NC(=O)c4ccc(NC(=O)c5ccc6nccnc6c5)cc4)cn3)c(OC)c2O)ccc(C(=O)O)c1O [compound 15] |  |  |  | + |  | 7.71 | 0.031 (≈ 0.0352 µM) | 2 (≈ 2.27 µM) |  | 0.031 (≈ 0.0352 µM) | 0.25 (≈ 0.284 µM) | 0.125 (≈ 0.142 µM)
